These results are taken from paper PMC3917281, “Identification and Biochemical Characterization of Halisulfate 3 and Suvanine as Novel Inhibitors of Hepatitis C Virus NS3 Helicase from a Marine Sponge” (Marine Drugs, 2014).

Broadly, the IC50 is the concentration that gives 50% inhibition.

For assay [1], the target named is T1, HCV NS3 helicase (Hepatitis C virus genotype 1a, UniProt P27958).
T1 construct: The full-length HCV NS3 protein with serine protease and NTPase/helicase activities was expressed and purified as described previously; made in house
T1 sequence (P27958 1027-1657): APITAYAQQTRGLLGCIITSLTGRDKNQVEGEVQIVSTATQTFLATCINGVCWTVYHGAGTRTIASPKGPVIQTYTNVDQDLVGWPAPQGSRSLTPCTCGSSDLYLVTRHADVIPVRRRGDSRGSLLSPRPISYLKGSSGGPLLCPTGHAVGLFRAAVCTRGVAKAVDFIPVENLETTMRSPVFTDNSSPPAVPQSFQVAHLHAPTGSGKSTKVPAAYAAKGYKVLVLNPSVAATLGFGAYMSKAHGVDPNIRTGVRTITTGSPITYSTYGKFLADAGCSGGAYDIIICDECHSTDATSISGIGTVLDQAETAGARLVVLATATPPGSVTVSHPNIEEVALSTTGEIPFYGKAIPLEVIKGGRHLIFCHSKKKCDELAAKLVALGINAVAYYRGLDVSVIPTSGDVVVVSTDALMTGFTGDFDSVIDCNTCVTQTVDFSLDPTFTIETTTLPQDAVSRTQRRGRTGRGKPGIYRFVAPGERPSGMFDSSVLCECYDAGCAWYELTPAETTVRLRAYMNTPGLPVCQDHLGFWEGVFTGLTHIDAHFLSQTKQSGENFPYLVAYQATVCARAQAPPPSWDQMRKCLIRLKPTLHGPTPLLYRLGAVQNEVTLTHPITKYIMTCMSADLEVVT
The experiment in a line: PET-based fluorescence helicase assay. It counts as biochemical. How it is done: The PET-based fluorescence helicase assay was performed as described previously. The dsRNA substrate was prepared by annealing the 5′ BODIPY FL-labeled fluorescence strand (5′-[…]-3′) to the quencher strand (5′-[…]-3′) at a 1:2 molar ratio. The dsRNA substrate contains the 3′-overhang that is necessary for the NS3 helicase to bind RNA prior to duplex unwinding. The capture strand (5′-[…]-3′), which is complementary to the quencher strand, prevents the unwound duplexes from reannealing. None of the capture, quencher, or fluorescence strands are self-complementary. The fluorescence strand was purchased from J-Bio 21 Corporation (Tokyo, Japan), and was labeled with BODIPY FL at the 5′-end via an aminohexylphosphate linker with a six-carbon spacer. […]
The reaction was started by the addition of HCV NS3 helicase, and was performed at 37 °C for 30 min using a LightCycler 1.5 (Roche Diagnostics, Basel, Switzerland). The fluorescence intensity was recorded every 5 s from 0 to 5 min, and then every 30 s from 5 to 30 min. Helicase activity was calculated as the initial reaction velocity relative to control (in the absence of a marine extract, but presence of DMSO vehicle). The IC50 was calculated using KaleidaGraph (Synergy Software, Reading, PA, USA) by fitting plots of % activity vs. [I] using Equation (1) unless otherwise noted: [drawing 1] […]

Assay [2] concerns the target T1, HCV NS3 helicase. The experiment in a line: Gel-based HCV NS3 helicase assay. It counts as biochemical. The note with it: 0–100 µM inhibitor. How it is done:
A gel-based helicase assay was performed on HCV NS3 helicases using an Alexa Fluor 488-labeled dsRNA strand and capture strand with the same nucleic acid sequences described in Section 3.2. The dsRNA substrate was prepared by annealing the 5′ Alexa Fluor 488-labeled strand (5′-[…]-3′) to the complementary strand (5′-[…]-3′) at a 1:2 molar ratio. The same capture strand described in Section 3.2 was used. All nucleic acid strands were purchased from Japan Bio Services (Saitama, Japan). The reaction mixture for HCV NS3 helicase contained the same components as described in Section 3.2, with increasing concentrations of hal3 or suvanine in a reaction volume of 20 µL. The reaction was started by the addition of HCV NS3 helicase, and performed at 37 °C for 60 min using a GeneAmp PCR System 2700 (Applied Biosystems, Foster City, CA, USA). […] The helicase activity was calculated as the ratio of the signal intensity derived from ssRNA in the sample containing inhibitor to that in the control sample containing DMSO vehicle instead of inhibitor.

The target of a further assay is T2, NS3 ATPase activity (Hepatitis C virus genotype 1a, UniProt P27958).
T2 construct: The full-length HCV NS3 protein with serine protease and NTPase/helicase activities was expressed and purified as described previously; made in house
T2 sequence (P27958 1027-1657): as above
Kind of assay: ATPase assay ([γ-32P] ATP hydrolysis, thin-layer chromatography). It counts as biochemical. As to conditions: poly(U) RNA, 0–100 µM inhibitor. The method, then: NS3 ATPase activity was determined directly by monitoring [γ-^32P] ATP hydrolysis by thin-layer chromatography, as described previously. The reaction mixture contained 25 mM MOPS-NaOH (pH 7.0), 1 mM dithiothreitol, 5 mM MgCl2, 5 mM CaCl2, 1 mM [γ-^32P] ATP (Muromachi Yakuhin, Tokyo, Japan), 300 nM NS3, 0.1 µg/µL poly (U) ssRNA (Sigma-Aldrich, St. Louis, MO, USA), and increasing concentrations of hal3 or suvanine in a volume of 10 µL. The reaction was conducted at 37 °C for 10 min, and stopped by the addition of 10 mM EDTA. Two microliters of each reaction mixture was then spotted onto a polyethyleneimine cellulose sheet (Merck, Darmstadt, Germany) and developed in 0.75 M LiCl/1 M formic acid solution for 20 min. The cellulose sheet was dried, and the released [γ-^32P] phosphoric acid was visualized using an Image Reader FLA-9000 and quantified using Multi Gauge software V 3.11 (Fujifilm, Tokyo, Japan). ATPase activity was calculated as the ratio of the signal intensity derived from the released Pi in the sample containing inhibitor to that in the control sample containing DMSO vehicle instead of inhibitor.

For another assay, the target named is T3, NS3 RNA binding activity (Hepatitis C virus genotype 1a, UniProt P27958).
T3 construct: The full-length HCV NS3 protein with serine protease and NTPase/helicase activities was expressed and purified as described previously; made in house
T3 sequence (P27958 1027-1657): as above
The experiment in a line: RNA binding assay (gel mobility shift). As to conditions: 32P-labeled ssRNA, 0–100 µM inhibitor. How it is done:
NS3 RNA binding activity was determined by gel mobility shift assay, as described previously. The ssRNA (5′-[…]-3′) synthesized by Gene Design (Osaka, Japan) was labeled at the 5′-end with [γ-^32P] ATP (Muromachi Yakuhin, Tokyo, Japan) using T4 polynucleotide kinase (Toyobo, Osaka, Japan) at 37 °C for 60 min, and purified using the phenol-chloroform extraction method. The reaction mixture contained 30 mM Tris-HCl (pH 7.5), 100 mM NaCl, 2 mM MgCl2, 1 mM dithiothreitol, 20 U RNasin Plus (Promega), 300 nM NS3, 0.1 nM ^32P-labeled ssRNA, and increasing concentrations of inhibitor in a volume of 20 µL. The reaction was performed at room temperature for 15 min. An equal volume of a dye solution containing 0.025% bromophenol blue and 10% glycerol in 0.5× TBE was then added to each reaction mixture, and samples were loaded onto a 6% native-polyacrylamide gel. The labeled RNA bands were visualized using an Image Reader FLA-9000 and quantified using Multi Gauge software V 3.11 (Fujifilm, Tokyo, Japan). RNA binding activity was calculated as the ratio of the signal intensity derived from the NS3-ssRNA complex in the sample containing hal3 or suvanine to that in the control sample containing DMSO vehicle rather than inhibitor.

For a further assay, the target named is T4, HCV NS3/4A protease (Hepatitis C virus genotype 1a, UniProt P27958).
T4 construct: NS3 protein with a two-fold excess of the NS4A cofactor peptide Pep4AK was prepared in 1× assay buffer; made in house
T4 sequence (P27958 1027-1657): as above
Kind of assay: Fluorescence NS3 serine protease assay (FRET). It counts as biochemical. How it is done:
A fluorescence NS3 serine protease assay, based on fluorescence resonance energy transfer, was conducted using reagents provided in a SensoLyte™ 520 HCV protease assay kit (AnaSpec, San Jose, CA, USA), as described previously. Briefly, NS3 protein with a two-fold excess of the NS4A cofactor peptide Pep4AK was prepared in 1× assay buffer provided with the kit. HCV NS3/4A protease was mixed with increasing concentrations of inhibitor, and incubated at 37 °C for 15 min. The reaction was started by the addition of 5-FAM/QXL 520 substrate in a 20 µL total reaction volume containing 240 nM HCV NS3/4A protease and increasing concentrations of hal3 or suvanine. Reactions were then incubated at 37 °C for 120 min on a LightCycler 1.5 (Roche Diagnostics, Basel, Switzerland), and the fluorescence intensity was recorded every min for 120 min. NS3 serine protease activity was calculated as the initial reaction velocity in the sample containing inhibitor relative to the control sample containing DMSO vehicle rather than inhibitor.

The target of a further assay is T5, DENV NS3 helicase (Dengue virus type 2, UniProt P29990).
T5 construct: made in house
T5 sequence (P29990 1476-2093): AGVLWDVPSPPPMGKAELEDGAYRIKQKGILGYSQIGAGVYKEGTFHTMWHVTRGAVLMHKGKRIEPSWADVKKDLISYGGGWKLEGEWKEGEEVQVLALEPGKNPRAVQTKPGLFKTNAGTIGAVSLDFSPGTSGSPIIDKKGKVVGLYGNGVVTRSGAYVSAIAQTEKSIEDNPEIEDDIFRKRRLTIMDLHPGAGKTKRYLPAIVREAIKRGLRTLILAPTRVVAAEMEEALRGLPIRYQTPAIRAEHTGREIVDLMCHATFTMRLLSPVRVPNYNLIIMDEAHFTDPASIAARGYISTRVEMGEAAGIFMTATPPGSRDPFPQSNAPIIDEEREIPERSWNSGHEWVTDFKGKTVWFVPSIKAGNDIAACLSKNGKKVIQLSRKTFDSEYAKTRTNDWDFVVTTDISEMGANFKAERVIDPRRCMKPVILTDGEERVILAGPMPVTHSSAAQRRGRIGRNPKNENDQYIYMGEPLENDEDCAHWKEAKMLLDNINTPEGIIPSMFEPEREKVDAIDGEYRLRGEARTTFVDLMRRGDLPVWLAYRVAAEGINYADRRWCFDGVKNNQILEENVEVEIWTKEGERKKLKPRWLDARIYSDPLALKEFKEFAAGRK
Kind of assay: Gel-based DENV NS3 helicase assay. It counts as biochemical. The note with it: in the presence of 100 µM of each inhibitor. The method, then:
A gel-based helicase assay was performed using DENV NS3 helicases, and the Alexa Fluor 488-labeled dsRNA strand and capture strand with the same nucleic acid sequences described in the Section 3.3. DENV NS3 helicase requires a single stranded 3′ overhang to unwind dsRNA substrates in the 3′ to 5′ direction; therefore, the substrate specificities of the DENV and HCV NS3 helicases are the same. The reaction mixture contained 50 mM Tris-HCl (pH 7.4), 1 mM DTT, 0.5% Tween 20, 0.25 µg/mL BSA, 2 mM MgCl2, 4 U RNasin (Promega), 5 mM ATP, 50 nM dsRNA substrate, 300 nM capture strand, an inhibitor, and 240 nM DENV NS3 in a total volume of 20 µL. DENV NS3 helicase was prepared as described previously. The reaction was started by the addition of DENV NS3 helicase, and was performed at 37 °C for 60 min using a GeneAmp PCR System 2700 (Applied Biosystems, Foster City, CA, USA). […] The helicase activity was calculated as the ratio of the signal intensity from ssRNA in the sample containing inhibitor to that in the control sample containing DMSO vehicle instead of inhibitor.

The test system of the next assay is serine protease. The note with it: cited from earlier work.
The test system of another assay is farnesoid-X-receptor. Details: method as in PMID 23656455. The note with it: mammalian bile acid sensor; cited from earlier work.
A further assay concerns heat shock protein 60. As to conditions: cited from earlier work.

Regarding `CC1(C)CCC[C@]2(C)[C@H]3CC/C(=C\OS(=O)(=O)[O-])[C@H](CCc4ccoc4)[C@@]3(C)CC[C@@H]12.[Na+]` [suvanine], the IC50 at HCV NS3 helicase [1] worked out at 3 µM; on NS3 ATPase activity it was 7 µM; at NS3 RNA binding activity it was 3 µM; against HCV NS3/4A protease it was 34 µM. Also, the “helicase-catalyzed RNA unwinding” value at HCV NS3 helicase [2] is “inhibited helicase-catalyzed RNA unwinding in a dose-dependent manner”. For the same molecule, the “DENV NS3 helicase activity” value on DENV NS3 helicase is recorded as “did not abolish”. In addition, the serine protease inhibition entry with serine protease is on record as “serine protease inhibitor”. For the same molecule, the farnesoid-X-receptor antagonism entry with farnesoid-X-receptor is “antagonist”. The “interference with heat shock protein 60” value in the assay on heat shock protein 60 is listed as “interferes with”.
Turning to `C[C@@H]1CCC2=C(CCCC2(C)C)[C@@]1(C)CC[C@H](CCCc1ccoc1)COS(=O)(=O)[O-].[Na+]` [hal3, halisulfate 3], the IC50 at HCV NS3 helicase [1] was determined as 4 µM; against NS3 ATPase activity, 8 µM; on NS3 RNA binding activity it was 8 µM; on HCV NS3/4A protease, 14 µM. For the same molecule, the “helicase-catalyzed RNA unwinding” value at HCV NS3 helicase [2] is on record as “inhibited helicase-catalyzed RNA unwinding in a dose-dependent manner”. Also, at DENV NS3 helicase, the “DENV NS3 helicase activity” value is on record as “did not abolish”.
